# Patent publication US20130158098A1, “Alkenyl Substituted Cycloaliphatic Compounds as Chemical Inducers of Proximity” (priority 2010, published 2013)
# Assays:
# [1] = ABA stability in human serum (luciferase biofunctional readout); format: in vitro ADME
# Method: (§1) FIG. 3C provides the results of a stability test of ABA in cell culture conditions. CHO cells were pre-transfected with the activation and reporter DNA constructs for 24 hours. 100 μM ABA was then added to the culture and cells were assayed for luciferase activity after 10 hours. During the 10-hour incubation, the cell culture media were replaced with media containing freshly added ABA every 1, 2.5, 5 hour or no replacement. FIG. 4A illustrates the results of an experiment in which human serum pre-incubated ABA was used to induce luciferase transcription. ABA was incubated with pure non-heat inactivated human serum at 37° C. for indicated time period. ABA containing serum was then added to the CHO cell culture to a final 100 μM ABA concentration for 25 hours and cells were assayed for luciferase activity. The cells were pre-transfected with the activation and reporter DNA constructs for 24 hours. FIG. 4B illustrates the results of an experiment in which fetal bovine serum pre-incubated ABA was used to induce luciferase transcription. ABA was incubated with pure heat inactivated fetal bovine serum at 37° C. for indicated time period. ABA containing serum was then added to the CHO cell culture to a final 100 μM ABA concentration for 10 hours and cells were assayed for luciferase activity. The cells were pre-transfected with the activation and reporter DNA constructs for 24 hours.
# (§2) In plants, ABA had been reported to be unstable due to active enzymatic degradation (Cutler, A. J. and Krochko, J. E. (1999) Formation and breakdown of ABA. Trends Plant Sci. 4, 472-478). […] The activity of residual ABA in the serum was measured by its ability to induce the transcriptional activation of the luciferase reporter in cells expressing the ABA-activator cassette. […] Using this assay, the bioavailability in mice was evaluated. […]
# [2] = rat; cited from earlier work
# [3] = ABA stability in fetal bovine serum (luciferase biofunctional readout); format: in vitro ADME; conditions: 37° C.
# Method: as §1, with “FIG. 4B illustrates the results of an experiment in which fetal bovine serum pre-incubated ABA was used to induce luciferase transcription. ABA was incubated with pure heat inactivated fetal bovine serum at 37° C. for indicated time period. ABA containing serum was then added to the CHO cell culture to a final 100 μM ABA concentration for 10 hours and cells were assayed for luciferase activity. The cells were pre-transfected with the activation and reporter DNA constructs for 24 hours.” left out
# as §2
# [4] = subchronic toxicity studies; cited from earlier work
# [5] = target: T1, VP16-PYLcs and Gal4 DBD-ABIcs (Arabidopsis thaliana, UniProt Q8VZS8); assay: ABA-induced GFP reporter activation in various cell lines; format: cell-based; conditions: 100 μM, 24 h; CHO, HEK 293, Cos7, NIH3T3, TC1 cells
# T1 construct: HA (from the reverse primer); expressed in transfected cells; host or cells: CHO; also HEK 293/293T, NIH3T3, COS7, B35, Jurkat, E14, TC1, MEF
# T1 sequence (Q8VZS8 33-209): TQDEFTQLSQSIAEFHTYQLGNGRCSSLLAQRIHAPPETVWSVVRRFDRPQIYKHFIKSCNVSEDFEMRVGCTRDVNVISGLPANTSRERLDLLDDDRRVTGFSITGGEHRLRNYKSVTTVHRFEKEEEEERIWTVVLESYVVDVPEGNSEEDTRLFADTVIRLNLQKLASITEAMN
# T1 sequence (P49597 126-423 partner): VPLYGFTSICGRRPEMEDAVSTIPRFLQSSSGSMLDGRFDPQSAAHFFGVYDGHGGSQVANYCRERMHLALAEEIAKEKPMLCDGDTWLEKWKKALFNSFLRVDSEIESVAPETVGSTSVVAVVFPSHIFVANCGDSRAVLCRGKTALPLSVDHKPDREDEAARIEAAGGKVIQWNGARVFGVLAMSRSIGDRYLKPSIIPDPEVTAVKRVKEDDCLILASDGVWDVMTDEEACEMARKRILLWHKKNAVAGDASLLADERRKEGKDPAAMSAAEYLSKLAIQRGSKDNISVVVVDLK
# Source text: Activation construct: A fragment of PYL1 (one of PYR/PYL/RCAR members) (aa 33-209, also referred to as “PYLcs”) was linked to a transcriptional activation domain and a fragment of ABI1 (one of PP2C members) (aa 126-423, SEQ ID NO:2, also referred to as “ABIcs”) was linked to a DNA binding domain using recombinant DNA methods. In the constructs illustrated in FIG. 1 and FIG. 2, PYL1 (“PYLcs”) is fused to the VP16 activation domain and ABI1 (“ABIcs”) is fused to the Gal4 DNA binding domain. These two regulatory elements are linked by IRES and driven by the SV40 early promoter. Reporter constructs: Full length Luciferase is driven by Fos gene minimal promoter with 5 copies of Gal4 DNA binding sites immediately upstream of Fos promoter. GFP reporter is driven by IL2 minimal promoter with 5×Gal4 DNA binding sites upstream.
# ABA regulated transcriptional activation is applicable to various cell lines from different origins besides CHO cells, as shown in FIG. 7. […] 100 μM of ABA was then added to the cell culture and cells were observed under fluorescence microscope for GFP expression after another 24 h.
# [6] = ABA stability in cell culture (luciferase biofunctional readout); format: in vitro ADME, Chinese hamster
# Method: as §1, §2
smiles,measurement,setting,value
"CC1=CC(=O)CC(C)(C)C1(O)/C=C/C(C)=C/C(=O)O (centres unmarked) [ABA, abscisic acid]",reduction in ability to induce transcription of luciferase,"[1]; pure human serum, 37° C., up to 48 hours",no significant reduction
same,time ABA is stable in human serum,"[1]; pure non-heat inactivated human serum, 37° C.",at least 46 hours
same,stability in serum,"[1]; serum, over 48 hours",stable
same,acute oral median lethal dose (LD50),[2],> 5000 mg/kg
same,reduction in ability to induce transcription of luciferase,"[3]; pure fetal bovine serum, up to 48 hours",no significant reduction
same,stability in fetal calf serum,[3]; pure heat inactivated fetal bovine serum,stable
same,no observable adverse effect level (NOAEL),[4],"20,000 mg/kg per day"
same,GFP reporter expression,[5],only expressed after ABA was added
same,ABA activity retained,[6]; after 24 hours of incubation with CHO cells,about 60%
same,ABA activity retained,[6]; after 48 hours of incubation with CHO cells,around 23%
same,reduction in ability to induce transcription of luciferase,"[6]; cell culture media, up to 48 hours",no significant reduction
